Key:
[1] = target: T1, Gal4DBD/AaEcR (DEF) (Aedes aegypti, UniProt P49880); experiment: cell-based; assay type: cell-based; conditions: 33 μM; 3T3 cells; 48 h; average of two wells
T1 construct: The wildtype D, E, and F domains from mosquito Aedes aegypti EcR; expressed in transfected cells; host or cells: 3T3 cells
Summary of the method: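 Mouse 3T3 cells transiently co-transfected with Gal4DBD/AaEcR (DEF) and pFRLuc (5× GAL4 response element, firefly luciferase reporter). Ligand added in serum medium 4 h after transfection; single-dose testing at 33 μM.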

[2] = target: T2, Bombyx mori EcR (VP16-BmEcR, CVBE) (Bombyx mori, UniProt P49881); experiment: Z3 assay (HEK-293 clone Z3 with CVBE and 6x EcRE LacZ, β-galactosidase reporter); assay type: cell-based; conditions: 48 h, average of two wells
T2 construct: expressed in transfected cells
T2 sequence (P49881 86-606): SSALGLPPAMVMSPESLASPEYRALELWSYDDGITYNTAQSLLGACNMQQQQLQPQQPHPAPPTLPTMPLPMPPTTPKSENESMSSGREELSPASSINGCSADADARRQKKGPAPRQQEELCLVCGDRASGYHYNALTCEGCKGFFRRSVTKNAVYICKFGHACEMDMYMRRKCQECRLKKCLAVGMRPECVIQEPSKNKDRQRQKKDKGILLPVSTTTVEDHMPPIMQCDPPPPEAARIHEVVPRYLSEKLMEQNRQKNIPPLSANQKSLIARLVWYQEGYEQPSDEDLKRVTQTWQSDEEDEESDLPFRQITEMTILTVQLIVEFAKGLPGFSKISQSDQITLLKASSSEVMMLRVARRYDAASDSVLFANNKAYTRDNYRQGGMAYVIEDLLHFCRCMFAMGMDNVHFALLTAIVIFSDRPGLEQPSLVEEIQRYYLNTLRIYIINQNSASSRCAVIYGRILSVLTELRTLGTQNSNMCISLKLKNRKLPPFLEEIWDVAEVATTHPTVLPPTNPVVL

[3] = tested on: CfEcR + LmUSP; conditions: CfEcR + LmUSP in 3T3 cells, reporter assayed 48 h after ligand
Experimental: 1.9—Gal4CfEcR-DEF/VP16LmRXR-EF: This construct was prepared in the same way as switch 1.1 except LmRXR-EF (SEQ ID NO: 18) was used in place of HsRXRβ-LmRXREF chimera.
(§1) To determine if any of the compounds shown in Table 1 and Table 2 can act as inducers of reporter gene activity in a transactivation assay, these compounds were tested in NIH3T3 cells transfected with pFRLUC reporter and gene expression cassettes, 1.1 to 1.8 described in Example 1. […] At 48 hr after adding ligand, the cells were harvested and reporter activity was assayed using Dual Luciferase assay kit (Promega carporation). Total relative light units (RLU) are shown. Standard methods for culture and maintenance of the cells were followed.
(§2) Transfections: DNAs corresponding to the various switch constructs outlined in Example I, specifically switches 1.1 through 1.8, were transfected into mouse NIH3T3 cells (ATCC) as follows. Cells were harvested when they reached 50% confluency and plated in 6-, 12- or 24-well plates at 125,000, 50,000, or 25,000 cells, respectively, in 2.5, 1.0, or 0.5 ml of growth medium containing 10% fetal bovine serum (FBS), respectively. The next day, the cells were rinsed with growth medium and transfected for four hours. […] For 12-well plates, 4 μl of Superfect™ was mixed with 100 μl of growth medium. 1.0 μg of reporter construct and 0.25 μg of each receptor construct of the receptor pair to be analyzed were added to the transfection mix. A second reporter construct was added [pTKRL (Promega), 0.1 μg/transfection mix] that comprises a Renilla luciferase gene operably linked and placed under the control of a thymidine kinase (TK) constitutive promoter and was used for normalization. The contents of the transfection mix were mixed in a vortex mixer and let stand at room temperature for 30 min. At the end of incubation, the transfection mix was added to the cells maintained in 400 μl growth medium. The cells were maintained at 37° C. and 5% CO2 for four hours. At the end of incubation, 500 μl of growth medium containing 20% FBS and either dimethylsulfoxide (DMSO; control) or a DMSO solution of 0.1, 1, and 10 μM ligand was added and the cells were maintained at 37° C. and 5% CO2 for 48 hours. The cells were harvested and reporter activity was assayed. The same procedure was followed for 6 and 24 well plates as well except all the reagents were doubled for 6 well plates and reduced to half for 24-well plates.
(§3) Ligands: All ligands were dissolved in DMSO and the final concentration of DMSO was maintained at 0.1% in both controls and treatments.
(§4) Reporter Assays: Cells were harvested 48 hours after adding ligands. 125, 250, or 500 μl of passive lysis buffer (part of Dual-luciferase™ reporter assay system from Promega Corporation) were added to each well of 24- or 12- or 6-well plates respectively. The plates were placed on a rotary shaker for 15 minutes. Twenty μl of lysate were assayed. Luciferase activity was measured using Dual-luciferase™ reporter assay system from Promega Corporation following the manufacturer's instructions.

[4] = target: T3, DmEcR + LmUSP (Drosophila melanogaster, UniProt P34021); conditions: DmEcR + LmUSP in 3T3 cells, reporter assayed 48 h after ligand
T3 sequence (P34021 342-878): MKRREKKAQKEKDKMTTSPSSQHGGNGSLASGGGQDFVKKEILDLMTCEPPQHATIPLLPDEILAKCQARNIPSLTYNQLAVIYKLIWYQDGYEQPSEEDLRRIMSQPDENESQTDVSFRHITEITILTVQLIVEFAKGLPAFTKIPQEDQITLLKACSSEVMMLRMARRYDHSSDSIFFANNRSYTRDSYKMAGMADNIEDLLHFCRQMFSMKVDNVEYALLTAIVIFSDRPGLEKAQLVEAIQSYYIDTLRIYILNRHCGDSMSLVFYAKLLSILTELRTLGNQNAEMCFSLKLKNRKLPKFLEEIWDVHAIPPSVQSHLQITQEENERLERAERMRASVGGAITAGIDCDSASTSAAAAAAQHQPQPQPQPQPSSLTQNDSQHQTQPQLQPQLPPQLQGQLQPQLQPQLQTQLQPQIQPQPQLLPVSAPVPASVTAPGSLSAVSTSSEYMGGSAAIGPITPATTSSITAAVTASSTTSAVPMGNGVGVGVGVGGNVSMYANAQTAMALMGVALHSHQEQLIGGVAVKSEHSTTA
Experimental: as §1, §2, §3, §4

T1 sequence (P28704 286-520 A311G/G315S/G445S/I449V): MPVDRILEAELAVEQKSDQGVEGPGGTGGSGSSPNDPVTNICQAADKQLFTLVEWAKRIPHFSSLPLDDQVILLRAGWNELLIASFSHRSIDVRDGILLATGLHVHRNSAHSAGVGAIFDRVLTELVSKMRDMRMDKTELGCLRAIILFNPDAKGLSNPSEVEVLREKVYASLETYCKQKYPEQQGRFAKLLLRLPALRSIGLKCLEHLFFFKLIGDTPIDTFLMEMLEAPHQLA
T1 sequence (P49880 405-776): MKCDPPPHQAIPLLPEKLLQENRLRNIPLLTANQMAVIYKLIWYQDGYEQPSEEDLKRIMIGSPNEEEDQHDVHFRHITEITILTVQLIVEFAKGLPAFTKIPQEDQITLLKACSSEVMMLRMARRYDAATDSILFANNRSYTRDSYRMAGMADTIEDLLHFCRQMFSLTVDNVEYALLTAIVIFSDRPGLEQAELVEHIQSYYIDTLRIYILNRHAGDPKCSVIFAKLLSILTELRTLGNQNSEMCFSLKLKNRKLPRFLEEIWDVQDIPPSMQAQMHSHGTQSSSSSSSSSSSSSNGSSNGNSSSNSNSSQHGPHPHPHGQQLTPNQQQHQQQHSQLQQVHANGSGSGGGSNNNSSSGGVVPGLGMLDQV

In the case of C[C@H]1C[C@H](Nc2ccc(F)cc2)c2cc(F)ccc2N1C(=O)c1ccc(F)c(C(F)(F)F)c1 (relative stereo) [Compound I-5], the “Fold Induction Average, AA_3T3V1 Assay 33 μM” value [1] is reported as 366 fold, the “Fold Induction Average, Z3V1 Assay 33 μM” value [2] is reported as 96 fold and the “Fold Induction (10 μM)” value [3] is reported as 69 fold. The “Fold Induction (10 μM)” value ([4]; 10 μM) was 8 fold and the “Fold Induction (100 μM)” value ([4]; 100 μM) was 7 fold.
